According to ChEMBL document CHEMBL1201862, “PubChem BioAssay data set” (2004):
Activity calls are given as the source filed them.

How the values were obtained:
[1] = target: T1, High affinity choline transporter 1 (Homo sapiens, UniProt Q9GZV3); experiment: CHT inhibitors, dose response, cell-based, 5-point CRC, membrane potential dye (AID 504840); format: functional
T1 sequence (Q9GZV3 whole entry): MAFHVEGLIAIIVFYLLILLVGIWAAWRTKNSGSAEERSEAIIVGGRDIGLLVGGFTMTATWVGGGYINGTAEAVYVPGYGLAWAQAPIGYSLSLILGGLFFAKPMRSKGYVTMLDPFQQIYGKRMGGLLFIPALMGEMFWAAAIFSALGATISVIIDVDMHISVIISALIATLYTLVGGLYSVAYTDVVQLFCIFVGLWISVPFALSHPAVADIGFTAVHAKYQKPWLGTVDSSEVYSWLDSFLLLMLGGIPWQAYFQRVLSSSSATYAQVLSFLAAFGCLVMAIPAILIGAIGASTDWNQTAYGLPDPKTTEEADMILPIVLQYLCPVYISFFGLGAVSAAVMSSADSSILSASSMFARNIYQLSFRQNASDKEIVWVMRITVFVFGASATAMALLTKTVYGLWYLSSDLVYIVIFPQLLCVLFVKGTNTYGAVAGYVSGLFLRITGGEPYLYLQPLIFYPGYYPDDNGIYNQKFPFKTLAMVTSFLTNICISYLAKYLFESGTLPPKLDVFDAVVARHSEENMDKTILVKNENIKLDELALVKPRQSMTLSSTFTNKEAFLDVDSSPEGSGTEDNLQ

[2] = target: T1, High affinity choline transporter 1; experiment: CHT inhibitors, dose response, cell-based, 10-point CRC, membrane potential dye (AID 588401); format: functional;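 note: membrane potential dye fluorescence of choline-evoked depolarization via CHT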
Escherichia coli [3] = experiment: microbe, parasite or virus in culture
[4] = Shn3 3'UTR reporter inhibitors, dose response, cell-based, Clone20 osteoblasts, firefly luciferase, cherry-picked (AID 624132); format: functional;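 note: firefly luciferase luminescence from reporter carrying the Shn3 3'UTR in osteoblasts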
[5] = HepG2 cell cytotoxicity, dose response, cytotoxicity control for Shn3 inhibitor project, CellTiter-Glo, cherry-picked (AID 624134); format: functional, cell-based
Escherichia coli [6] = experiment: microbe, parasite or virus in culture; remark: listed apart in the source
Vero = experiment: cells; format: functional, cell-based; details: Chlorocebus sabaeus
[7] = target: Heat shock protein HSP 90-alpha (Homo sapiens, UniProt P07900); format: functional, organism-based
[8] = control 3'UTR Renilla luciferase suppression, dose response, counter-screen for Shn3 inhibitor project, cell-based, Clone20-Shn3RL, cherry-picked (AID 624133); format: functional
[9] = target: Protein disulfide-isomerase (Homo sapiens, UniProt P07237); experiment: PDI inhibitors, insulin aggregation turbidity, dose response, biochemical, absorbance, cherry-picked samples (AID 602350); format: functional
Aurora kinase B = Aurora kinase B (Homo sapiens, UniProt Q96GD4); format: functional
[10] = target: Cell division cycle 7-related protein kinase (Homo sapiens, UniProt O00311); format: functional;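 note: value obtained from a kinome-wide kinase panel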
Aurora kinase A = target: T2, Aurora kinase A (Homo sapiens, UniProt O14965); format: functional;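 note: value from the Navigating the Kinome kinase panel profiling, panel entry STK6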
T2 sequence (O14965 whole entry): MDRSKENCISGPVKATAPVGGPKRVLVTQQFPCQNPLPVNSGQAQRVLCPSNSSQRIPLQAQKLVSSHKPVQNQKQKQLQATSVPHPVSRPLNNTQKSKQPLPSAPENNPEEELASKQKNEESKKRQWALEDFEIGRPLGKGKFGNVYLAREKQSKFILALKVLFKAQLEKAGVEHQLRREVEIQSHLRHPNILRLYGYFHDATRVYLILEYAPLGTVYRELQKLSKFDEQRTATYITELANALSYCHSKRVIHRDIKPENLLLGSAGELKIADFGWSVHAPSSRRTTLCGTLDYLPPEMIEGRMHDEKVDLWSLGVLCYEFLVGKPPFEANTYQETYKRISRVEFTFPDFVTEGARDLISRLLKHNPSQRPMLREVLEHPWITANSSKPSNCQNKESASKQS

[11] = target: ALK tyrosine kinase receptor (Homo sapiens, UniProt Q9UM73); format: functional;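 note: ALK tested as one member of a kinase panel screen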
Wee1-like protein kinase = Wee1-like protein kinase (Homo sapiens, UniProt P30291); experiment: Navigating the Kinome. Panel member name: WEE1; format: functional
[12] = target: Melanin-concentrating hormone receptor 1 (Homo sapiens, UniProt Q99705); experiment: Late-stage fluorescence-based counterscreen for antagonists of the G-protein coupled receptor 7 (GPR7): cell-based dose response assay to identify antagonists of the melanin-concentrating hormone receptor 1 (MCHR1) Set 6.; format: functional
[13] = target: Neuropeptides B/W receptor type 1 (Homo sapiens, UniProt P48145); experiment: GPR7 antagonist potency, late-stage follow-up, cell-based, fluorescence, dose response, set 6 (AID 588583); format: functional
Chain of Neuropeptides B/W receptor type 1 (P48145 whole entry): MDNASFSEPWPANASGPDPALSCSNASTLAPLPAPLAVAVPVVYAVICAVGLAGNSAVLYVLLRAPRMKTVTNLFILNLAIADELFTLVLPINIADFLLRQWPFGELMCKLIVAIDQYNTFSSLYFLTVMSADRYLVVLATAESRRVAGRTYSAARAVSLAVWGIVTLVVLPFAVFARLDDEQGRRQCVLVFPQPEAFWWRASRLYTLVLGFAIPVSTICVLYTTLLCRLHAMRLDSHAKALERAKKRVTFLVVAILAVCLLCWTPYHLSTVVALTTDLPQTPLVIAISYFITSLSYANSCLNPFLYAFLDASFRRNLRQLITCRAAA

Chain of Wee1-like protein kinase (P30291 whole entry): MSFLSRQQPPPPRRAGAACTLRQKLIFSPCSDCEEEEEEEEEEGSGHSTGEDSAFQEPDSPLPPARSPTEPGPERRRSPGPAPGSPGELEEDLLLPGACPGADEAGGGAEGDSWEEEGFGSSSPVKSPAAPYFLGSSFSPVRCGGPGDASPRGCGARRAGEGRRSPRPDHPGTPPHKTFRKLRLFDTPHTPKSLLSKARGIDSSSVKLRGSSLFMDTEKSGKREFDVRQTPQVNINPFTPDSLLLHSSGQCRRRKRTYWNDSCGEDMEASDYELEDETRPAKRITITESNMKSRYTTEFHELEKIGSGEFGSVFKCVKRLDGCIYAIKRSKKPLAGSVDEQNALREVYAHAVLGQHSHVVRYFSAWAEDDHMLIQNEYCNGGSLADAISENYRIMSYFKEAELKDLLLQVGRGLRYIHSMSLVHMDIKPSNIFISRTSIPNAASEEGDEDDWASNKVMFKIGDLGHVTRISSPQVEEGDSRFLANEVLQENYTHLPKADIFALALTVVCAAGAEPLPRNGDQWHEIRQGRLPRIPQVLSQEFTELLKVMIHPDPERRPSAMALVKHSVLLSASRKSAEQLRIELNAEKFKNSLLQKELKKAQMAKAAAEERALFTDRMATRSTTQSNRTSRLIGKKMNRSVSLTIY
Chain of Melanin-concentrating hormone receptor 1 (Q99705 whole entry): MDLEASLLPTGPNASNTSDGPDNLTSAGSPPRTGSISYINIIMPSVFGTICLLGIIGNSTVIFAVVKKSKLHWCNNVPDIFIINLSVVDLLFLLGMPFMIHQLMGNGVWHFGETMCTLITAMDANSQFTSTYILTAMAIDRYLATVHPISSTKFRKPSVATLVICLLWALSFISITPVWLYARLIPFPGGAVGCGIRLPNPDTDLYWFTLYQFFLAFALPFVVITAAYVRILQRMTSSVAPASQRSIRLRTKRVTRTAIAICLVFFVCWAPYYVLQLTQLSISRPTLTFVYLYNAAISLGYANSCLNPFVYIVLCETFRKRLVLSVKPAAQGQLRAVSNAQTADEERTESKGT
Chain of Cell division cycle 7-related protein kinase (O00311 whole entry): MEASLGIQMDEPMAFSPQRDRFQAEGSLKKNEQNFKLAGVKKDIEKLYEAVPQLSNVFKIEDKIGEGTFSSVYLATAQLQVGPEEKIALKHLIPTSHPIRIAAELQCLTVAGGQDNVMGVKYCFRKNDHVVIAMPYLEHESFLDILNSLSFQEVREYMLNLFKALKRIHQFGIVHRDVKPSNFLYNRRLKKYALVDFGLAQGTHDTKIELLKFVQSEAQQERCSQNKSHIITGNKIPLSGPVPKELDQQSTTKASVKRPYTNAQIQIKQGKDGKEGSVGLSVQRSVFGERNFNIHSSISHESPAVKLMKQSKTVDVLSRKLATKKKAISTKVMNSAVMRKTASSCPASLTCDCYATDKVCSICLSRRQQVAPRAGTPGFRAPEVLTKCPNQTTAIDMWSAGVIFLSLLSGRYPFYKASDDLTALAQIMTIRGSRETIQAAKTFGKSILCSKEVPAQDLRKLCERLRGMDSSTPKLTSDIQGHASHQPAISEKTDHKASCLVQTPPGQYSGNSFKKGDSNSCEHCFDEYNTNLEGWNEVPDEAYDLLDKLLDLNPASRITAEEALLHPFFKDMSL
Chain of Aurora kinase B (Q96GD4 whole entry): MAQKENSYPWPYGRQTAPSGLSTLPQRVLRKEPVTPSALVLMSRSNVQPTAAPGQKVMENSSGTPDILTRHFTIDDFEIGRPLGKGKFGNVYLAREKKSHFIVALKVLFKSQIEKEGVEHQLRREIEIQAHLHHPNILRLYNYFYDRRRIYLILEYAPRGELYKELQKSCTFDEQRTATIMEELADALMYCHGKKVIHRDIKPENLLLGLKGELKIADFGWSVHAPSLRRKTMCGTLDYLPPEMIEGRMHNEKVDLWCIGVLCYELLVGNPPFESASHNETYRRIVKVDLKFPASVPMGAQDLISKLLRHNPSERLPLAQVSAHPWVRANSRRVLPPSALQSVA
Chain of ALK tyrosine kinase receptor (Q9UM73 whole entry): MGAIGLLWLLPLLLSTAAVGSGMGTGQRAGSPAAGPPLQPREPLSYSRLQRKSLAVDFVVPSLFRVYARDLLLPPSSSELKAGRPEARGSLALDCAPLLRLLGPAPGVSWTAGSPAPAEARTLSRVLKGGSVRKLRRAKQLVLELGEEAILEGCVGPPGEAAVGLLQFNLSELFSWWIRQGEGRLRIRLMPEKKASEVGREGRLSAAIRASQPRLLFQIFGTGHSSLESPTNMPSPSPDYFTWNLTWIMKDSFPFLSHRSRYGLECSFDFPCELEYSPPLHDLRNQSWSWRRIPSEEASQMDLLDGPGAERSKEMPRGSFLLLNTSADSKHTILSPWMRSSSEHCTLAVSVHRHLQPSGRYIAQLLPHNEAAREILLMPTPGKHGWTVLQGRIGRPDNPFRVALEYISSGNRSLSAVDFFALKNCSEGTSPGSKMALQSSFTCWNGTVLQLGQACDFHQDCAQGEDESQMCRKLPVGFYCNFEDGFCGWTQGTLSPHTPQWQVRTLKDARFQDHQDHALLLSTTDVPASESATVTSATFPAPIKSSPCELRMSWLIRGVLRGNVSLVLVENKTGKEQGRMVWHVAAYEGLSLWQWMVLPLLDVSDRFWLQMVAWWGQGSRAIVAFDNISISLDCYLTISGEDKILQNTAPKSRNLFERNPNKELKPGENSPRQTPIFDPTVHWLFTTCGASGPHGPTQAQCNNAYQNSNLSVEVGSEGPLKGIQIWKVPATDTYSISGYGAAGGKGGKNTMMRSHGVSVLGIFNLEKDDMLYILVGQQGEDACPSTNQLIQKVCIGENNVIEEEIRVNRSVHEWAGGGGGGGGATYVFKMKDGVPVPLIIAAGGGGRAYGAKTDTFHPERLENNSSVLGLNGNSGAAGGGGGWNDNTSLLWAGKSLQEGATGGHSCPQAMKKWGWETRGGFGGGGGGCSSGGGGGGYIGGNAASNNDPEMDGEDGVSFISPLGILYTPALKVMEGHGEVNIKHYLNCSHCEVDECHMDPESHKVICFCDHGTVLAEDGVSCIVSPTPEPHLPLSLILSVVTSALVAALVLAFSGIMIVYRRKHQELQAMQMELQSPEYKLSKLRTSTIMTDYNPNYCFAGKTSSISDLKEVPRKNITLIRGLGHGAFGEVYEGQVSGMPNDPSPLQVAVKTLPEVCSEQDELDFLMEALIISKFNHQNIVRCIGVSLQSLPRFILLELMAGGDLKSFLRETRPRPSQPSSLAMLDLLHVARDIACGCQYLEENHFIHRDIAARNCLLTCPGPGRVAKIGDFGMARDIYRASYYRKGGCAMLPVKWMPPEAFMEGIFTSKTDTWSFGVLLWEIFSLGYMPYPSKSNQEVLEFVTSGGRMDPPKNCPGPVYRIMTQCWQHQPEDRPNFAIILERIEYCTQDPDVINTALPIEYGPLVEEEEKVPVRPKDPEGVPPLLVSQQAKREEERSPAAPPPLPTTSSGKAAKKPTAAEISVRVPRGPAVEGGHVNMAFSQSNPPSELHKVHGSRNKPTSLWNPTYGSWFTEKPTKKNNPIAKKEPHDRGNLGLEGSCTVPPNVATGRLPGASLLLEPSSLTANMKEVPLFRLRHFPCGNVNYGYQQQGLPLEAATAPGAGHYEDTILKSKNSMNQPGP
Chain of Protein disulfide-isomerase (P07237 whole entry): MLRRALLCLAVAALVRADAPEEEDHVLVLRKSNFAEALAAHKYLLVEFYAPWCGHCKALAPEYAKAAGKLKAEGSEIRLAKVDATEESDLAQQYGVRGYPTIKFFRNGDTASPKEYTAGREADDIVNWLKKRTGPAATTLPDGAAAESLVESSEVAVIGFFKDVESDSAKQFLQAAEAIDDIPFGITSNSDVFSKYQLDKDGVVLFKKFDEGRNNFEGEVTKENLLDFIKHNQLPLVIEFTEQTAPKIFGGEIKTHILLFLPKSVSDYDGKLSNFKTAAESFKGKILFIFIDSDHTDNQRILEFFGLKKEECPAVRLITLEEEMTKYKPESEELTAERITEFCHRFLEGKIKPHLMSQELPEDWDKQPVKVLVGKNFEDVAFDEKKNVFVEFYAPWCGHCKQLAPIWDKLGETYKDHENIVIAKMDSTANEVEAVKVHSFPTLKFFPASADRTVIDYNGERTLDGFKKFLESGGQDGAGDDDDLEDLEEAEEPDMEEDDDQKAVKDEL

CC(CN1CCN(C)CC1)OC(=O)c1ccccc1Cl (configuration not stated)
active: IC50 [1] 10000 nM | IC50 [2] 4220 nM

COc1cc2cc(C(=O)N3CC(COS(C)(=O)=O)c4ccc(O)cc43)[nH]c2c(OC)c1OC (configuration not stated)
active: AC50 (Escherichia coli [3]) 22800 nM | AC50 [4] < 260 nM | AC50 [5] 352 nM | AC50 (Escherichia coli [6]) 4260 nM | IC50 (Vero) 8570 nM | AC50 [7] 708 nM | AC50 [8] < 260 nM | AC50 [9] 18000 nM

COc1ccc(Nc2nccc(Nc3ccccc3C(=O)O)n2)cc1O
active: Ki (Aurora kinase B) 5.01 nM | Ki [10] 0.126 nM | Ki (Aurora kinase A) 20 nM

CCN1CCN(c2ccc(Nc3ncc(C(F)(F)F)c(Nc4ccc5[nH]ncc5c4)n3)cc2)CC1
active: Ki [11] 15.8 nM | Ki (Wee1-like protein kinase) 7.94 nM

CCOc1ccccc1Cn1ncc(Cl)c(Oc2ccc(OC)cc2)c1=O
active: IC50 [12] ~624 nM | IC50 [13] ~624 nM
